Data reported in patent publication US20230146455A1, “TREATMENT OF INFLAMMATORY DISEASES WITH PEPTIDES AND PHARMACEUTICAL COMPOSITIONS” (Yuyu Pharma, Inc., priority 2020, published 2023).
Several values for one entry are separate records, joined by “and”; a condition that tells them apart may be missing. Equal values may be shown once. Where a SMILES comes first, the peptide text is derived from it. [ ]: non-standard residue; d: D form. Hyp = O=C(O)[C@@H]1C[C@@H](O)CN1

Tested on: CCL5/RANTES
Experiment: Example 9 Luminex, LPS hPBMCs: CCL5/RANTES
Type: cell-based, human
Conditions: PBMC + LPS(5 ug/ml)
Experimental: Treatment Human PBMCs were pretreated with YY-101, YDE-011 and YDE-043 or reference compound; Xiidra® at various concentration (ranging from 1 nM to 100 uM) for 2 h before stimulation. An equal volume of 0.5% DMSO was used as a vehicle control. Then, the cells were treated with LPS at 5 ug/ml. The supernatants from treated cells were harvested at 24 h and placed in a 96 well for Luminex cytokine & chemokine profiling using a Luminex 200 multiplex assay (Luminex; R&D system, USA).
The main study arm with triplicate wells per group in a 24-well plate: • 1. Blank • 2. PBMC: 0.5% DMSO • 3. PBMC+LPS (5 ug/ml) • 4. PBMC+YY-101 100 uM • 5. PBMC+YY-101 10 uM • 6. PBMC+YY-101 1 uM • 7. PBMC+YY-101 0.1 uM • 8. PBMC+YY-101 0.01 uM • 9. PBMC+LPS (5 ug/ml)+Xiidra®100 uM • 10. PBMC+LPS (5 ug/ml)+Xiidra® 10 uM • 11. PBMC+LPS (5 ug/ml)+Xiidra® 1 uM • 12. PBMC+LPS (5 ug/ml)+Xiidra®0.1 uM • 13. PBMC+LPS (5 ug/ml)+Xiidra®0.01 uM • 14. PBMC+LPS (5 ug/ml)+Xiidra®0.001 uM • 15. PBMC+LPS (5 ug/ml)+YY-101 100 uM • 16. PBMC+LPS (5 ug/ml)+YY-101 10 uM • 17. PBMC+LPS (5 ug/ml)+YY-101 1 uM • 18. PBMC+LPS (5 ug/ml)+YY-101 0.1 uM • 19. PBMC+LPS (5 ug/ml)+YY-101 0.01 uM • 20. PBMC+LPS (5 ug/ml)+YY-101 0.001 uM • 21. PBMC+LPS (5 ug/ml)+YDE-011 100 uM • 22. PBMC+LPS (5 ug/ml)+YDE-011 10 uM • 23. PBMC+LPS (5 ug/ml)+YDE-011 1 uM • 24. PBMC+LPS (5 ug/ml)+YDE-011 0.1 uM • 25. PBMC+LPS (5 ug/ml)+YDE-011 0.01 uM • 26. PBMC+LPS (5 ug/ml)+YDE-011 0.001 uM • 27. PBMC+LPS (5 ug/ml)+YDE-043 100 uM • 28. PBMC+LPS (5 ug/ml)+YDE-043 10 uM • 29. PBMC+LPS (5 ug/ml)+YDE-043 1 uM • 30. PBMC+LPS (5 ug/ml)+YDE-043 0.1 uM • 31. PBMC+LPS (5 ug/ml)+YDE-043 0.01 uM • 32. PBMC+LPS (5 ug/ml)+YDE-043 0.001 uM
Multiplex assay was used to measure 30 cytokines and chemokines. The 1:2, 1:10 and 1:200 diluted cell supernatant and serial dilution of the standard were dispensed into a 96 well plate at 50 ul/well. Then, the pre-mixed cocktail of antibody-coated magnetic beads was dispensed at 50 ul/well and incubated at room temperature for 2 h in a horizontal orbital microplate shaker at 800±500 rpm. The beads were washed using a magnetic device to prevent loss. The biotin-antibody was dispensed in 50 ul of each well and incubated at room temperature for 1 h in a shaker at 800±500 rpm. After washing, streptavidin-PE was added at 50 ul/well and incubated at room temperature for 30 min in a shaker under the same conditions. Finally, after washing, wash buffer (100 ul/well) was added to the plate and incubated in a shaker for 2 min. The Luminex™ 200 setting were set according to the manufacturer's protocol. The data was calculated with a standard five-parameter logistic nonlinear regression analysis of the data (xPonent software 4.2, USA). The levels of cytokine/chemokine are normalized to the live cell counts (1×10^5 cells/mL) and presented as concentrations per mL (pg/mL or ng/mL).

[1] = test article 0.001 uM, single replicates (1st, 2nd, 3rd)
[2] = test article 0.01 uM, single replicates (1st, 2nd, 3rd)
[3] = test article 0.1 uM, single replicates (1st, 2nd, 3rd)
[4] = test article 1 uM, single replicates (1st, 2nd, 3rd)
[5] = test article 10 uM, single replicates (1st, 2nd, 3rd)
[6] = test article 100 uM, single replicates (1st, 2nd, 3rd)

Structure (SMILES): CC(C)C[C@H](NC(=O)[C@H](CCC(N)=O)NC(=O)CNC(=O)[C@@H]1C[C@@H](O)CN1)C(=O)NCC(=O)O [YDE-043] (H-[Hyp]GQLG-OH; N-terminus and C-terminus assumed)
- Concentration (CCL5/RANTES) (test article 0.001 uM, Mean): 207.1 pg/mL
- MFI (Bead name: CCL5/RANTES) (test article 0.001 uM, Mean): 469.3
- conc/live cell (CCL5/RANTES) (test article 0.001 uM, Mean): 42.0 pg/10^5
- Concentration (CCL5/RANTES) [1]: 199.1 pg/mL and 216.5 pg/mL and 205.7 pg/mL
- MFI (Bead name: CCL5/RANTES) [1]: 445.5 and 497.5 and 465.0
- conc/live cell (CCL5/RANTES) [1]: 45.3 pg/10^5 and 36.1 pg/10^5 and 44.7 pg/10^5
- Concentration (CCL5/RANTES) (test article 0.01 uM, Mean): 214.6 pg/mL
- MFI (Bead name: CCL5/RANTES) (test article 0.01 uM, Mean): 491.8
- conc/live cell (CCL5/RANTES) (test article 0.01 uM, Mean): 41.1 pg/10^5
- Concentration (CCL5/RANTES) [2]: 219.3 pg/mL and 212.9 pg/mL and 211.7 pg/mL
- MFI (Bead name: CCL5/RANTES) [2]: 506.0 and 486.5 and 483.0
- conc/live cell (CCL5/RANTES) [2]: 48.7 pg/10^5 and 32.3 pg/10^5 and 42.3 pg/10^5
- Concentration (CCL5/RANTES) (test article 0.1 uM, Mean): 215.9 pg/mL
- MFI (Bead name: CCL5/RANTES) (test article 0.1 uM, Mean): 495.8
- conc/live cell (CCL5/RANTES) (test article 0.1 uM, Mean): 40.1 pg/10^5
- Concentration (CCL5/RANTES) [3]: 220.2 pg/mL and 200.1 pg/mL and 227.4 pg/mL
- MFI (Bead name: CCL5/RANTES) [3]: 508.5 and 448.5 and 530.5
- conc/live cell (CCL5/RANTES) [3]: 44.0 pg/10^5 and 35.7 pg/10^5 and 40.6 pg/10^5
- Concentration (CCL5/RANTES) (test article 1 uM, Mean): 214.4 pg/mL
- MFI (Bead name: CCL5/RANTES) (test article 1 uM, Mean): 491.2
- conc/live cell (CCL5/RANTES) (test article 1 uM, Mean): 40.7 pg/10^5
- Concentration (CCL5/RANTES) [4]: 218.2 pg/mL and 212.9 pg/mL and 212.2 pg/mL
- MFI (Bead name: CCL5/RANTES) [4]: 502.5 and 486.5 and 484.5
- conc/live cell (CCL5/RANTES) [4]: 37.6 pg/10^5 and 44.3 pg/10^5 and 40.0 pg/10^5
- Concentration (CCL5/RANTES) (test article 10 uM, Mean): 202.8 pg/mL
- MFI (Bead name: CCL5/RANTES) (test article 10 uM, Mean): 456.5
- conc/live cell (CCL5/RANTES) (test article 10 uM, Mean): 37.6 pg/10^5
- Concentration (CCL5/RANTES) [5]: 212.9 pg/mL and 193.7 pg/mL and 201.8 pg/mL
- MFI (Bead name: CCL5/RANTES) [5]: 486.5 and 429.5 and 453.5
- conc/live cell (CCL5/RANTES) [5]: 40.9 pg/10^5 and 35.9 pg/10^5 and 36.0 pg/10^5
- Concentration (CCL5/RANTES) (test article 100 uM, Mean): 163.0 pg/mL
- MFI (Bead name: CCL5/RANTES) (test article 100 uM, Mean): 341.8
- conc/live cell (CCL5/RANTES) (test article 100 uM, Mean): 25.9 pg/10^5
- Concentration (CCL5/RANTES) [6]: 167.0 pg/mL and 159.0 pg/mL
- MFI (Bead name: CCL5/RANTES) [6]: 353.0 and 330.5
- conc/live cell (CCL5/RANTES) [6]: 26.9 pg/10^5 and 24.8 pg/10^5
